# Measured values reported in US4410626A, “Process for the production of 7α-methoxycephalosporin derivatives” (Yamanouchi Pharmaceutical Co. Ltd., priority 1978, dated 1983).
# Assays:
# Proteus mirabilis = experiment: Antibacterial activity, plate disc method (diameter of inhibitory circle), Proteus mirabilis; format: cell-based; parameters: unit not given here; conditions: pH 8.0, plate disc method
# Source text: (§1) 3. The antibacterial activities to Proteus mirabilis and Salmonella gallinarum are as follows:
# (§2) Peptone 1%, yeast extract 0.1%, agaragar 1%, pH 8.0, plate disc method,
# (§3) the numerical values are the diameters of inhibitory circles.
# Salmonella gallinarum = experiment: Antibacterial activity, plate disc method (diameter of inhibitory circle), Salmonella gallinarum; format: cell-based; conditions: pH 8.0, plate disc method
# Source text: as §1, §2, §3
# [1] = system: Bacillus subtilis ATCC 6633; experiment: Minimum inhibitory concentration, Bacillus subtilis; format: cell-based; conditions: ATCC6633
# [2] = system: Staphylococcus aureus ATCC 6538F; experiment: Minimum inhibitory concentration, Staphylococcus aureus; format: cell-based; conditions: ATCC6538F
# Escherichia coli NIHJ = experiment: Minimum inhibitory concentration, Escherichia coli; format: cell-based
# [3] = system: Klebsiella pnuemoniae ATCC 10031; experiment: Minimum inhibitory concentration, Klebsiella pnuemoniae; format: cell-based; conditions: ATCC10031
# Salmonella typhi H901W = experiment: Minimum inhibitory concentration, Salmonella typhi; format: cell-based; conditions: Salmonella enterica, read-out: Minimum inhibitory concentration
# [4] = system: Salmonella enteritidis 1891; experiment: Minimum inhibitory concentration, Salmonella enteritidis; format: cell-based; conditions: Salmonella enterica
# Shigella boydii IID 627 = experiment: Minimum inhibitory concentration, Shigella boydii; format: cell-based; conditions: IID627
# Proteus mirabilis IMFOM9 = experiment: Minimum inhibitory concentration, Proteus mirabilis; format: cell-based
# Proteus vulgaris OXK US = experiment: Minimum inhibitory concentration, Proteus vulgaris; format: cell-based
# [5] = system: Pseudomonas aeruginosa NCTC 10490; experiment: Minimum inhibitory concentration, Pseudomonas aeruginosa; format: cell-based; conditions: NCTC10490
# [6] = Solubility / hygroscopicity of the Na salt (physicochemical properties); conditions: for Solubility in methanol, ethanol, ethyl acetate, butyl acetate and other organic solvents: (n-)butanol (not named for compound C)
SMILES,diameter of inhibitory circle (Proteus mirabilis; 100 γ/ml),diameter of inhibitory circle (Proteus mirabilis; 500 γ/ml),diameter of inhibitory circle (Salmonella gallinarum; 100 γ/ml),diameter of inhibitory circle (Salmonella gallinarum; 500 γ/ml),MIC [1] [µg/mL],MIC [2] [µg/mL],MIC (Escherichia coli NIHJ) [µg/mL],MIC [3] [µg/mL],MIC (Salmonella typhi H901W) [µg/mL],MIC [4] [µg/mL],MIC (Shigella boydii IID 627) [µg/mL],MIC (Proteus mirabilis IMFOM9) [µg/mL],MIC (Proteus vulgaris OXK US) [µg/mL],MIC [5] [µg/mL],"Solubility in methanol, ethanol, ethyl acetate, butyl acetate and other organic solvents ([6]; ethyl acetate, butyl acetate)",Solubility in water [6],Hygroscopicity [6],"Solubility in ethyl acetate, butyl acetate, n-butanol and other organic solvents ([6]; ethyl acetate, butyl acetate, n-butanol and other organic solvents)",Solubility in methanol and ethanol ([6]; methanol and ethanol)
"CO[C@@]1(NC(=O)CCC[C@@H](N)C(=O)O)C(=O)N2C(C(=O)O)=C(COC(=O)/C=C/c3ccc(OS(=O)(=O)O)cc3)CS[C@@H]21 [Compound (A), 7β-(D-5-Amino-5-carboxyvaleramido)-7α-methoxy-3-(p-sulfooxycinnamoyloxymethyl)-Δ^3-cephem-4-carboxylic acid]",22.3,28.7,17.0,21.5,12.5,100,6.25,25,3.13,6.25,6.25,0.78,0.39,> 100,scarcely,Easily soluble,–,–,–
"CO[C@@]1(NC(=O)CCCC(=O)O)C(=O)N2C(C(=O)O)=C(CSc3nnnn3C)CS[C@@H]21 [Y-G19Z-GG, 7(4-carboxybutyramido)-7-methoxy-3-(1-methyl-1H-tetrazol-5-yl)thio-methylΔ^3cephem-4-carboxylic acid, reference compound]",–,19.0,–,16.0,–,–,–,–,–,–,–,–,–,–,–,–,–,–,–
"CO[C@@]1(NC(=O)CCCC(=O)O)C(=O)N2C(C(=O)O)=C(COC(=O)/C=C/c3ccc(OS(=O)(=O)O)cc3)CS[C@@H]21 [Compound (B), 7β-(4-Carboxybutyramido)-7α-methoxy-3-(p-sulfooxycinnamoyloxymethyl)-Δ^3-cephem-4-carboxylic acid]",17.6,27.2,14.2,18.3,100,100,6.25,25,50,50,25,12.5,6.25,> 100,scarcely soluble,Easily soluble,–,–,–
"COC(=Cc1ccc(OS(=O)(=O)O)cc1)C(=O)OCC1=C(C(=O)O)N2C(=O)[C@](NC(=O)CCC[C@@H](N)C(=O)O)(OC)[C@H]2SC1 [Comp. a, reference compound]",–,–,–,–,50,> 100,25,50,25,25,25,6.25,1.56,> 100,–,–,–,–,–
"COC(=Cc1ccc(O)cc1)C(=O)OCC1=C(C(=O)O)N2C(=O)[C@](NC(=O)CCC[C@@H](N)C(=O)O)(OC)[C@H]2SC1 [Comp. b, reference compound]",–,–,–,–,6.25,100,12.5,25,50,12.5,50,6.25,6.25,> 100,–,–,–,–,–
"CO[C@@]1(NC(=O)CCCC(=O)O)C(=O)N2C(C(=O)O)=C(COC(=O)/C=C/c3ccc(O)cc3)CS[C@@H]21 [Compound (D), 7β-(4-carboxybutyramido)-3-(p-hydroxycinnamoyloxymethyl)-7α-methoxy-Δ^3-cephem-4-carboxylic acid]",18.0,27.7,11.5,16.2,100,50,6.25,12.5,25,25,12.5,6.25,3.13,> 100,–,Easily soluble,Very hygroscopic,scarcely soluble,slightly soluble
"CO[C@@]1(NC(=O)CCC[C@@H](N)C(=O)O)C(=O)N2C(C(=O)O)=C(COC(=O)/C=C/c3ccc(O)cc3)CS[C@@H]21 [Compound (C), 7β-(D-5-amino-5-carboxyvaleramido)-3-(p-hydroxycinnamoyloxymethyl)-7α-methoxy-Δ^3-cephem-4-carboxylic acid]",22.0,27.8,15.1,20.0,3.13,50,3.13,3.13,12.5,1.56,6.25,0.78,0.78,> 100,scarcely soluble,Easily soluble,–,–,–
"CO[C@@]1(NC(=O)CCCC(N)C(=O)O)C(=O)N2C(C(=O)O)=C(CSc3nnnn3C)CS[C@@H]21 (some centres unmarked) [Y-G19Z-G, 7(5-amino-5-carboxyvaleramido)-7-methoxy-3-(1-methyl-1H-tetrazol-5-yl)thimethyl-Δ^3cephem-4-carboxylic acid, reference compound]",21.6,27.0,18.5,21.5,–,–,–,–,–,–,–,–,–,–,–,–,–,–,–
